The EC50 is the concentration giving half of the maximal effect.

The test system of one assay is HSV-1 strain F or KOS. The experiment in a line: Inhibition of herpes simplex virus (HSV-1) replication in cell culture (BHK-21 cells, glycoprotein C ELISA). Format: cell-based. Conditions: Human alphaherpesvirus 1, BHK-21; Group 1 Table 1. The method, then:
B) Inhibition of Herpes Simplex Virus (HSV-1) Replication in Cell Culture
Assay: BHK-21 cells clone 13 (ATCC CCL10) were incubated for two days in 850 cm^2 roller bottles (2×10^7 cells/bottle) with α-MEM medium (Gibco Canada Inc., Burlington, Ontario, Canada) supplemented with 8% (v/v) fetal bovine serum (FBS, Gibco Canada, Inc.). The cells were trypsinized and then 3,000 cells in 100 μL of fresh medium were transferred into each well of a 96-well microtiter plate. The cells were incubated at 37° for a period of 3 days to reach a density of 50,000 cells per well. The cells were washed twice with 100 μL of α-MEM supplemented with 2% heat inactivated FBS and incubated for 1-2 hours in 100 μL of the same medium.
Thereafter, the cells were infected with HSV-1 strain F or KOS (multiplicity of infection=0.05 PFU/cell) in 50 μL of α-MEM supplemented with 2% heat inactivated FBS. Following one hour of virus absorption at 37°, the medium was removed and the cells were washed with α-MEM supplemented with 2% heat inactivated FBS (2×100 μL). The cells were incubated with or without 100 μL of the appropriate concentration of test reagent in α-MEM medium supplemented with 2% heat inactivated FBS. After 24 hours of incubation at 37°, the extent of viral replication was determined by an ELISA assay; for instance, the following assay that detects the late glycoprotein C of HSV-1.
Cells were fixed in the microtiter plate with 100 μL of 0.063% glutaraldehyde in phosphate buffered saline for 30 min at room temperature. The microtiter plate was then washed once with casein blocking solution and blocked with 200 μL of the same solution for one hour at room temperature. Thereafter, 100 μL of mAb C11 recognizing the glycoprotein C of HSV-1 (see E. Trybala et al., Journal of General Virology, 1994, 75, 743) was added to each well for two hours at room temperature. The plate was washed three times with phosphate buffered saline containing 0.05% polyoxyethylene (20) sorbitan monooleate. The cells were incubated with 100 μL of sheep anti-mouse IgG horseradish peroxidase for one hour at room temperature in the dark.
The plate was washed three times with 200 μL of the above-noted phosphate buffer saline preparation, and then once with 0.1 M sodium citrate (pH 4.5). Thereafter, 100 μL of orthophenylenediamine dihydrochloride (OPD, Gibco, Canada Inc.) was added to each well. The plate was agitated on a microplate shaker for 30 min in the dark. Color development was monitored at 450 nm using a microplate spectrophotometer.
SAS was used to calculate % inhibition of viral replication and to generate EC50 values.

Assay [1] concerns HCMV (strain AD169). The experiment in a line: Inhibition of HCMV replication, ELISA assay (Hs-68 cells, p28). Particulars: Human betaherpesvirus 5, AD169, Hs68; Group 1 Table 1; read-out: ELISA CMV EC50. Format: cell-based, human cytomegalovirus. The method, then: (§1) C) Inhibition of Human Cytomegalovirus (HCMV) replication
(§2) The effect of compounds on the replication of HCMV has been measured by using an ELISA-based assay (ELISA) and a plaque reduction assay (PRA).
Hs-68 cells (ATCC # CRL 1635) were seeded in 96 well microtiter plates at 10,000 cells/well in 100 μL of DMEM medium (Gibco Canada Inc.) supplemented with 10% fetal bovine serum (FBS, Gibco Canada Inc.). The plates were incubated for 3 days at 37° to allow the cells to reach 80-90% confluency prior to the assay.
The medium was removed from wells by aspiration. The cells then were infected at a multiplicity of infection (MOI) of 0.01 PFU/cell with 50 μL of HCMV (strain AD169, ATCC VR-538) in DMEM medium supplemented with 5% heat inactivated FBS (assay medium). The virus was allowed to adsorb to cells for 2 h at 37°. Following viral adsorption, the medium was removed from the wells by aspiration. The cells were washed twice with 200 μL of assay medium to remove unabsorbed virus. The cells were then incubated with or without 100 μL of appropriate concentrations of test reagent in assay medium. After 8 days of incubation at 37°, the extent of viral replication was determined by an ELISA assay which detects the late structural protein p28 of HCMV.
Eight days after infection, the medium was aspirated from the wells. Non-specific binding sites were blocked by adding 200 μL of phosphate buffered saline containing 1% (w/v) bovine serum albumin (blocking buffer) to each well and incubating the plates for 30 min at room temperature. After removal of the blocking buffer by aspiration, the cells were fixed with 100 μL of cold ethanol-acetone solution (95:5) per well. The plates were placed at −20° for 30 min. The plates were washed 4 times with phosphate buffered saline containing 0.05% (v/v) polyoxyethylene sorbitan monolaurate (Tween 20®). Thereafter, 100 μL of mAb UL99 (Advanced Biotechnologies Inc., #13-130-100) recognizing HCMV protein p28 was added to each wells and plates were incubated for 2 h at room temperature. The plates were washed four times with 200 μL of the above-noted phosphate buffered saline/Tween-20® solution. The cells were then incubated with 100 μL of sheep anti-mouse IgGγ horseradish peroxidase conjugated for 2 h at room temperature. The plates were then washed four times with 200 μL of above-noted phosphate buffered saline/Tween-20®solution. Thereafter, 100 μL of ortho phenylenediamine dihydrochloride (OPD, Gibco Canada Inc.) solution was added to each well and the plates were agitated on a microplate shaker for 30 min in the dark. Color development was monitored at 450 nm using a microplate spectrophotometer.
The SAS program was used to calculate the % inhibition of viral replication and to generate EC50 values.
The EC50 values obtained according to this assay method for certain thiazolylphenyl derivatives of this invention are listed in the following tables under the heading ELISA CMV.
(In an ELISA, binding on a coated surface is turned into a signal by an enzyme label.)

Assay [2] relates to HCMV (strain AD169). The experiment in a line: Inhibition of HCMV replication, plaque reduction assay (PRA, Hs-68 cells). Particulars: Human betaherpesvirus 5, AD169, Hs68; Group 1 Table 1; read-out: PRA CMV EC50. It is filed as cell-based, human cytomegalovirus. As to the method: as §1, §2
Hs-68 cells ( ATCC # CRL 1635) were seeded in 12-well plates at 83,000 cells/well in 1 mL of DMEM medium (Gibco Canada Inc.) supplemented with 10% fetal bovine serum (FBS, Gibco Canada Inc.). The plates were incubated for 3 days at 37° to allow the cells to reach 80-90% confluency prior to the assay.
The medium was removed from the cells by aspiration. The cells were then infected with approximately 50 PFU of HCMV (strain AD169, ATCC VR-538) in DMEM medium supplemented with 5% inactivated FBS (assay medium). The virus was allowed to adsorb to cells for 2 h at 37°. Following viral adsorption, the medium was removed from the wells by aspiration. The cells were then incubated with or without 1 mL of appropriate concentrations of test reagent in assay medium. After 4 days of incubation at 37°, the medium was exchanged with fresh medium containing test compound and 4 days later the cells were fixed with 1% aqueous formaldehyde and stained with a 2% crystal violet solution in 20% ethanol in water. Microscopic plaques were counted using a stereomicroscope. Drug effects were calculated as a percent reduction in the number of plaques in the presence of each drug concentration compared to the number observed in the absence of drug. Ganciclovir was used as a positive control in all experiments.
The EC50 values obtained according to this assay for certain thiazolyl derivatives of this invention are listed in the following tables under the heading PRA CMV.
Background: Plaques are areas of infected cells; plaque reduction assays count them against a control.

In the case of `Nc1nc(-c2ccc(NC(=O)CN(CCc3ccccc3)C(=O)c3cccnc3)cc2)cs1` [Example 67], the EC50 in the assay with HSV-1 strain F or KOS was 0.21 µM; in the assay on HCMV (strain AD169) [1], 2.1 µM; in the assay on HCMV (strain AD169) [2], 93 µM.

For the origin of these results see patent publication US6348477B1, “Anti-herpesvirus compounds and methods for identifying, making and using same” (Boehringer Ingelheim(Canada) Ltd., priority 1995, dated 2002).
